Measurements taken from patent US12616200B2, “Herbicidal combinations comprising diflufenican and mesotrione” (priority 2020, dated 2026).

Key:
Assay type in all cases: in vivo, Amaranthus palmeri
[1] = tested on: AMAPA WR-2015-002 (resistant against glyphosate, PPO-, HPPD- and ALS-inhibitor herbicides); experiment: Greenhouse pre-emergence herbicidal activity, AMAPA WR-2015-002; details: 3 weeks, mean of 6
From the text: (§1) Test conditions in the greenhouse trial, herbicidal activity against weed plants pre-emergence.
(§2) Seeds of weed plants and crop plants are sown in 3.5 inches (8.89 cm) pots containing a 50:50 mix of Redi-earth (Sun Gro, Bellevue, Washington) and soil at 0.5 to 0.75 inches (1.27 to 1.905 cm) deep. The compounds of the disclosure, formulated in the form of wettable powders (WP) or emulsifiable concentrates (EC), are then applied to the dry soil surface, in the form of an aqueous suspension or emulsion, using a laboratory track sprayer calibrated to deliver 15 gallons per acre (140.31 L/ha). Following the treatment, the pots are placed in a greenhouse and overhead irrigated with 0.25 inches (0.635 cm) for activation and maintained under good growth conditions for the test plants. Visual scoring of the damage to the trial plants takes place after a trial time of 3 weeks in comparison to untreated controls (herbicidal activity in percent (%): 100% activity=plants have died; 0% activity=as control plants). The results are set out in the tables which follow.
AMAPA (WR-2015-002) Amaranthus palmeri (resistant against glyphosate, PPO-, HPPD- and ALS-inhibitor herbicides) (Tennessee).
(§3) Herbicidal activity against different weeds (undesired plants) was calculated as follows: E^C=A+B−A×B/100; E^C=(A+B+C)−(A×B+A×C+B×C)/100+(A×B×C)/10000; • wherein: • A, B, C=respective value in percent of active ingredient A at a dose rate of a g/ha, ingredient B at a dose rate of b g/ha and ingredient C at a dose rate of c g/ha; • E^C=Expected value according to Colby (S. R. Colby; Weeds 15 (1967), 20-22) in % at a dose rate of a+b (+c), each in g/ha; • Δ=Difference (%) between measured value E and expected value E^C (%) (measured value minus expected value). Evaluation: • measured value E is greater than E^C: →synergism (+Δ); • measured value E is equal to E^C: →additive effect; • measured value E is smaller than E^C: →antagonism (−Δ);
(§4) All values in Tables 1 to 15 are mean values of 6 repetitions.

[2] = tested on: AMAPA WR-2013-043 (resistant against HPPD-inhibitor herbicides); experiment: Greenhouse pre-emergence herbicidal activity, AMAPA WR-2013-043; details: 3 weeks, mean of 6
From the text: as §1, §2
AMAPA (WR-2013-043) Amaranthus palmeri (resistant against HPPD-inhibitor herbicides) (Kansas).
as §3, §4

[3] = tested on: AMAPA WR-2015-008 (resistant against glyphosate and metribuzin (PSII-inhibitor), PPO-, HPPD- and ALS-inhibitor herbicides); experiment: Greenhouse pre-emergence herbicidal activity, AMAPA WR-2015-008; details: mean of 6
From the text: as §1, §2
AMAPA (WR-2015-008) Amaranthus palmeri (resistant against glyphosate and metribuzin (PSII-inhibitor), PPO-, HPPD- and ALS-inhibitor herbicides).
as §3, §4

Structure (SMILES)	Activity [%] against AMAPA WR-2015-002 ([1]; rate 75 g/ha) [%]	Activity [%] against AMAPA WR-2015-002 ([1]; rate 150 g/ha) [%]	Activity [%] against AMAPA WR-2013-043 ([2]; rate 75 g/ha) [%]	Activity [%] against AMAPA WR-2013-043 ([2]; rate 150 g/ha) [%]	Activity [%] against AMAPA WR-2015-008 ([3]; rate 37 g/ha, visual scoring after 3 weeks) [%]	Activity [%] against AMAPA WR-2015-008 ([3]; rate 75 g/ha, 3 weeks) [%]	Activity [%] against AMAPA WR-2015-002 ([1]; rate 105 g/ha) [%]	Activity [%] against AMAPA WR-2013-043 ([2]; rate 52 g/ha) [%]	Activity [%] against AMAPA WR-2013-043 ([2]; rate 105 g/ha) [%]	Activity [%] against AMAPA WR-2015-008 ([3]; rate 52 g/ha, 3 weeks) [%]	Activity [%] against AMAPA WR-2015-008 ([3]; rate 105 g/ha, 3 weeks) [%]	Activity [%] against AMAPA WR-2015-008 ([3]; rate 150 g/ha, 3 weeks) [%]
O=C(Nc1ccc(F)cc1F)c1cccnc1Oc1cccc(C(F)(F)F)c1 [DFF, 2′,4′-difluoro-2-[3-(trifluoromethyl)phenoxy]pyridine-3-carboxanilide]	45.8	71.7	47.5	63.3	40.8	51.7						
CS(=O)(=O)c1ccc(C(=O)C2C(=O)CCCC2=O)c([N+](=O)[O-])c1 [MST, 2-[4-(methylsulfonyl)-2-nitrobenzoyl]cyclohexane-1,3-dione]							82.5	55.0	70.5	57.7	85	
CSc1nnc(C(C)(C)C)c(=O)n1N [MRB, 4-amino-6-(1,1-dimethylethyl)-3-(methylthio)-1,2,4-triazin-5(4H)-one]						39.2						45
